Converted amounts (≈) assume the structure as drawn. Like-named read-outs stand apart in the source and are kept apart here.

Holding throughout (type): cell-based
Assay [1] has as its system mitochondrial protein synthesis in HepG2 cells. Kind of assay: Mitochondrial protein synthesis assay (COX-I to SDH-A ratio, In Cell ELISA). As to conditions: 4 days, ratio of COX-I to SDH-A levels, read-out: MPS IC50. On the procedure: Mitochondrial Protein Synthesis Assay
Inhibition of mitochondrial protein synthesis was assessed in HepG2 cells by comparing the levels of two subunits of oxidative phosphorylation enzyme complexes, subunit I of Complex IV (COX-I) and the 70 kDa subunit of Complex II (SDH-A). COX-I is mitochondrial DNA encoded and SDH-A is nuclear DNA encoded. HepG2 cells were seeded in 96-well collagen coated plates at 8,000 cells per well and exposed to 2-fold serial dilutions of compounds from 100 μM to 6.25 μM. Microtiter plates were incubated for approximately 5 replication cycles (4 days) prior to assessment of protein levels using a kit as described by the manufacturer (ab110217 MitoBiogenesis In Cell ELISA Kit, Abcam, Cambridge, MA). Inhibition of mitochondrial protein synthesis was expressed as a ratio of COX-1 to SDH-A levels.
(In general: ELISA stands for enzyme-linked immunosorbent assay.)

The subject of assay [2] is Mycobacterium tuberculosis (Mtb-GFP; H37Rv pMSP12::GFP). Kind of assay: microbe, parasite or virus in culture. The settings on record: 168 h, pH 6.8, read-out: Mtb Cho MITC95, cholesterol carbon source, pH 6.8, 7-day growth, GFP fluorescence, lowest concentration inhibiting 95% of growth.
The test system is the same in assay [3]. Kind of assay: microbe, parasite or virus in culture. As to conditions: 168 h, pH 6.8, read-out: Mtb Glu MITC95, glucose carbon source, pH 6.8, 7-day growth, GFP fluorescence, lowest concentration inhibiting 95% of growth.

For orientation: IC50 means the midpoint of a concentration-inhibition curve. As to `CN1CC(S(=O)(=O)c2ccc(-c3c(F)cc(C4=NO[C@@H](CNS(C)(=O)=O)C4)cc3F)cc2)C1` [Example 33, N-({(5R)-3-[2,6-Difluoro-4′-(1-methylazetidine-3-sulfonyl)[1,1′-biphenyl]-4-yl]-4,5-dihydro-1,2-oxazol-5-yl}methyl) methanesulfonamide], the IC50 in assay [1] (Homo sapiens, HepG2, 96 h) is above 100 µM. For the same compound, the MIC in assay [2] is 1.66 µM (≈ 0.829 µg/mL); in assay [3], 1.56 µM (≈ 0.779 µg/mL).
As to `CN1CC(Oc2ccc(-c3c(F)cc(C4=NO[C@@H](Cn5ccnn5)C4)cc3F)cc2)C1` [Example 34, 1-{[(5R)-3-{2,6-Difluoro-4′-[(1-methylazetidin-3-yl)oxy][1,1′-biphenyl]-4-yl}-4,5-dihydro-1,2-oxazol-5-yl]methyl}-1H-1,2,3-triazole], the IC50 in assay [1] (Homo sapiens, HepG2, 96 h) is 2.6 µM. Also, the MIC in assay [2] and in assay [3] was 0.09 µM (≈ 0.0383 µg/mL) throughout.
For `CN1CC(Oc2ccc(-c3ccc(C4=NO[C@@H](CO)C4)cc3F)cc2)C1` [Example 35, [(5R)-3-{2-Fluoro-4′-[(1-methylazetidin-3-yl)oxy][1,1′-biphenyl]-4-yl}-4,5-dihydro-1,2-oxazol-5-yl]methanol], the IC50 in assay [1] (Homo sapiens, HepG2, 96 h) was above 50 µM. Moreover, the MIC in assay [2] and in assay [3] was 3.12 µM (≈ 1.11 µg/mL) in each case.
For the compound `Fc1cc(C2=NO[C@@H](Cn3ccnn3)C2)ccc1-c1ccn2c(C3CNC3)nnc2c1` [Example 37, 3-(Azetidin-3-yl)-7-(2-fluoro-4-{(5R)-5-[(1H-1,2,3-triazol-1-yl)methyl]-4,5-dihydro-1,2-oxazol-3-yl}phenyl)[1,2,4]triazolo[4,3-a]pyridine], in assay [1] (Homo sapiens, HepG2, 96 h), the IC50 amounted to 65 µM. For the same compound, the MIC in assay [2] came to 1.56 µM (≈ 0.653 µg/mL); in assay [3], 0.78 µM (≈ 0.326 µg/mL).
Turning to `N=S1(=O)CCC(F)(c2c(F)cc(C3=NO[C@@H](Cn4ccnn4)C3)cc2F)CC1` (stereo partly drawn) [Example 38, 4-(2,6-Difluoro-4-{(5R)-5-[(1H-1,2,3-triazol-1-yl)methyl]-4,5-dihydro-1,2-oxazol-3-yl}phenyl)-4-fluoro-1-imino-1λ^6-thian-1-one], the half-maximal inhibitory concentration (IC50) in assay [1] came to 44 µM. Moreover, the MIC in assay [2] was 1.56 µM (≈ 0.645 µg/mL); in assay [3], 0.78 µM (≈ 0.322 µg/mL).
For `O=S1(=O)CCC(F)(c2c(F)cc(C3=NO[C@@H](Cn4cc(CO)nn4)C3)cc2F)CC1` [Example 40, 4-{2,6-Difluoro-4-[(5R)-5-{[4-(hydroxymethyl)-1H-1,2,3-triazol-1-yl]methyl}-4,5-dihydro-1,2-oxazol-3-yl]phenyl}-4-fluoro-1λ^6-thiane-1,1-dione], in assay [1] (Homo sapiens, HepG2, 96 h), the IC50 is above 100 µM. Moreover, the MIC in assay [2] and in assay [3] was 1.56 µM (≈ 0.693 µg/mL) in each case.
For the compound `CN1CC(S(=O)(=O)c2ccc(-c3c(F)cc(C4=NO[C@@H](CO)C4)cc3F)cc2)C1` [Example 41, {(5R)-3-[2,6-Difluoro-4′-(1-methylazetidine-3-sulfonyl)[1,1′-biphenyl]-4-yl]-4,5-dihydro-1,2-oxazol-5-yl}methanol], in assay [1] (Homo sapiens, HepG2, 96 h), the concentration for half-maximal inhibition (IC50) was above 100 µM. Further, the MIC in assay [2] is 2.34 µM (≈ 0.989 µg/mL); in assay [3], 1.56 µM (≈ 0.659 µg/mL).
Regarding `CCC1(S(=O)(=O)c2ccc(-c3ccc(C4=NO[C@@H](Cn5ccnn5)C4)cc3F)cc2)CN(C)C1` [Example 43, 1-({(5R)-3-[4′-(3-Ethyl-1-methylazetidine-3-sulfonyl)-2-fluoro[1,1′-biphenyl]-4-yl]-4,5-dihydro-1,2-oxazol-5-yl}methyl)-1H-1,2,3-triazole], the IC50 in assay [1] (Homo sapiens, HepG2, 96 h) turned out to be 4.1 µM. Further, the MIC in assay [2] and in assay [3] was 0.19 µM (≈ 0.0919 µg/mL) each time.
For `CN1CC(F)(S(=O)(=O)c2ccc(-c3ccc(C4=NO[C@@H](Cn5ccnn5)C4)cc3F)cc2)C1` [Example 44, l-({(5R)-3-[2-Fluoro-4′-(3-fluoro-1-methylazetidine-3-sulfonyl)[1,1′-biphenyl]-4-yl]-4,5-dihydro-1,2-oxazol-5-yl}methyl)-1H-1,2,3-triazole], the IC50 in assay [1] (Homo sapiens, HepG2, 96 h) stood at 1.4 µM. Besides, the MIC in assay [2] stood at 0.12 µM (≈ 0.0568 µg/mL); in assay [3], 0.09 µM (≈ 0.0426 µg/mL).
In the same order, the values of `CN1CCC(C)(S(=O)(=O)c2ccc(-c3ccc(C4=NO[C@@H](Cn5ccnn5)C4)cc3F)cc2)C1` (stereo partly drawn) [Example 45, l-({(5R)-3-[4′-(1,3-Dimethylpyrrolidine-3-sulfonyl)-2-fluoro[1,1′-biphenyl]-4-yl]-4,5-dihydro-1,2-oxazol-5-yl}methyl)-1H-1,2,3-triazole] are 4 µM, 0.39 µM (≈ 0.189 µg/mL) and 0.19 µM (≈ 0.0919 µg/mL).
For the compound `O=S1(=O)CCC(F)(c2c(F)cc(C3=NO[C@@H](CO)C3)cc2F)CC1` [Example 47, 4-{2,6-Difluoro-4-[(5R)-5-(hydroxymethyl)-4,5-dihydro-1,2-oxazol-3-yl]phenyl}-4-fluoro-1λ^6-thiane-1,1-dione], the IC50 in assay [1] (Homo sapiens, HepG2, 96 h) was above 100 µM. For the same compound, the MIC in assay [2] and in assay [3] was 6.25 µM (≈ 2.27 µg/mL) each time.
For `O=S1(=O)CCC(F)(c2ccc(C3=NO[C@@H](Cn4ccnn4)C3)cc2F)CC1` [Example 48, 4-Fluoro-4-(2-fluoro-4-{(5R)-5-[(1H-1,2,3-triazol-1-yl)methyl]-4,5-dihydro-1,2-oxazol-3-yl}phenyl)-1λ^6-thiane-1,1-dione], in assay [1] (Homo sapiens, HepG2, 96 h), the IC50 was above 100 µM. Also, the MIC in assay [2] and in assay [3] was 6.25 µM (≈ 2.48 µg/mL) in each case.
Regarding `CN1CC(C)(S(=O)(=O)c2ccc(-c3ccc(C4=NO[C@@H](CNC(=O)C5CC5)C4)cc3F)cc2)C1` [Example 49, N-({(5R)-3-[4′-(1,3-Dimethylazetidine-3-sulfonyl)-2-fluoro[1,1′-biphenyl]-4-yl]-4,5-dihydro-1,2-oxazol-5-yl}methyl) cyclopropanecarboxamide], the half-inhibitory concentration (IC50) in assay [1] (Homo sapiens, HepG2, 96 h) was found to be 51 µM. In addition, the MIC in assay [2] was found to be 0.17 µM (≈ 0.0825 µg/mL); in assay [3] it was 0.15 µM (≈ 0.0728 µg/mL).
As for `O=C(NC[C@H]1CC(c2cc(F)c(C3(F)CCS(=O)(=O)CC3)c(F)c2)=NO1)OC1CC1` [Example 50, Cyclopropyl({(5R)-3-[3,5-difluoro-4-(4-fluoro-1,1-dioxo-1λ^6-thian-4-yl)phenyl]-4,5-dihydro-1,2-oxazol-5-yl}methyl)carbamate], in assay [1] (Homo sapiens, HepG2, 96 h), the IC50 was above 100 µM. In addition, the MIC in assay [2] and in assay [3] was 3.12 µM (≈ 1.39 µg/mL) in each case.
On to `CN1CC(F)(c2nnc3cc(-c4ccc(C5=NO[C@@H](Cn6ccnn6)C5)cc4F)ccn23)C1` [Example 51, 3-(3-Fluoro-1-methylazetidin-3-yl)-7-(2-fluoro-4-{(5R)-5-[(1H-1,2,3-triazol-1-yl)methyl]-4,5-dihydro-1,2-oxazol-3-yl}phenyl)[1,2,4]triazolo [4.3-a]pyridine], for which, in assay [1] (Homo sapiens, HepG2, 96 h), the IC50 came to 1.4 µM. Besides, the MIC in assay [2] and in assay [3] was 0.09 µM (≈ 0.0405 µg/mL) in each case.
For the compound `Fc1cc(C2=NO[C@@H](Cn3ccnn3)C2)ccc1-c1ccn2c(C3(F)CNC3)nnc2c1` [Example 52, 3-(3-Fluoroazetidin-3-yl)-7-(2-fluoro-4-{(5R)-5-[(1H-1,2,3-triazol-1-yl)methyl]-4,5-dihydro-1,2-oxazol-3-yl}phenyl)[1,2,4]triazolo [4.3-a]pyridine], the IC50 in assay [1] (Homo sapiens, HepG2, 96 h) worked out at 27 µM. Moreover, the MIC in assay [2] and in assay [3] was 0.78 µM (≈ 0.34 µg/mL) throughout.
With `CS(=O)(=O)NC[C@H]1CC(c2cc(F)c(C3(F)CCS(=O)(=O)CC3)c(F)c2)=NO1` [Example 53, N-({(5R)-3-[3,5-Difluoro-4-(4-fluoro-1,1-dioxo-1λ^6-thian-4-yl)phenyl]-4,5-dihydro-1,2-oxazol-5-yl}methyl) methanesulfonamide], the IC50 in assay [1] (Homo sapiens, HepG2, 96 h) was above 100 µM. For the same compound, the MIC in assay [2] and in assay [3] was 6.25 µM (≈ 2.75 µg/mL) each time.
As to `Cc1cn(C[C@H]2CC(c3cc(F)c(C4(F)CCS(=O)(=O)CC4)c(F)c3)=NO2)nn1` [Example 54, 4-(2,6-Difluoro-4-{(5R)-5-[(4-methyl-1H-1,2,3-triazol-1-yl)methyl]-4,5-dihydro-1,2-oxazol-3-yl}phenyl)-4-fluoro-1λ^6-thiane-1,1-dione], the concentration for half-maximal inhibition (IC50) in assay [1] (Homo sapiens, HepG2, 96 h) is 45 µM. Also, the MIC stood at 1.17 µM (≈ 0.501 µg/mL) in assay [2] and 0.78 µM (≈ 0.334 µg/mL) in assay [3].
For the compound `CCOC(=O)NC[C@H]1CC(c2cc(F)c(C3(F)CCS(=O)(=O)CC3)c(F)c2)=NO1` [Example 55, Ethyl ({(5R)-3-[3,5-difluoro-4-(4-fluoro-1,1-dioxo-1λ^6-thian-4-yl)phenyl]-4,5-dihydro-1,2-oxazol-5-yl}methyl)carbamate], the IC50 in assay [1] (Homo sapiens, HepG2, 96 h) is above 100 µM. The MIC in assay [2] and in assay [3] was 3.12 µM (≈ 1.36 µg/mL) each time.
Regarding `CN1CC(C)(S(=O)(=O)c2ccc(-c3ccc(C4=NO[C@@H](C(N)=O)C4)cc3F)cc2)C1` [Example 56, (5R)-3-[4′-(1,3-Dimethylazetidine-3-sulfonyl)-2-fluoro[1,1′-biphenyl]-4-yl]-4,5-dihydro-1,2-oxazole-5-carboxamide], in assay [1] (Homo sapiens, HepG2, 96 h), the IC50 was above 100 µM. Further, the values for the MIC in assay [2] and in assay [3] were 6.25 µM (≈ 2.7 µg/mL) and 13 µM (≈ 5.61 µg/mL), respectively.
For `CC(=O)NC[C@H]1CN(c2ccc(N3CCOCC3)c(F)c2)C(=O)O1` [linezolid, reference compound], in that order: 8 µM, 3.14 µM (≈ 1.06 µg/mL) and 4.58 µM (≈ 1.55 µg/mL).

The record behind these values is patent US20260035363A1, “COMPOUNDS AND METHODS OF USE THEREOF AS ANTIBACTERIAL AGENTS” (priority 2019, published 2026).
